This is an account of results in patent US20160046592A1, “PHARMACEUTICAL COMPOSITION FOR THE TREATMENT OF DIABETES” (Ajinomoto Co., Inc., priority 2013, published 2016).

Where a name gives a salt, the structure may show the parent alone.

One assay deals with T1, PPAR-α (Homo sapiens, UniProt Q07869).
T1 construct: expressed in transfected cells; host or cells: CV-1 (African green monkey kidney)
T1 sequence (Q07869 167-468): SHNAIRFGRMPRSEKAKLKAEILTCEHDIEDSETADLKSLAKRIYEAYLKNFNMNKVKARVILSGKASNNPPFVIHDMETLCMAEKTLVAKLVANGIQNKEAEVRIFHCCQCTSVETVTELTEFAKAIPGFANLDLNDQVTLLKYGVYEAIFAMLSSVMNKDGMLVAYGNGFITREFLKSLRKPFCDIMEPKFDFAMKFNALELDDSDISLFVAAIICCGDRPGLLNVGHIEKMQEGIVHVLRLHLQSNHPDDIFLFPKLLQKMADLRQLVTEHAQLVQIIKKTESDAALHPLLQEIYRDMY
Kind of assay: Measurement of PPAR-α activity (GAL4 luciferase reporter assay in CV-1 cells). The assay is classed as cell-based. The settings on record: 100(A/B): A = maximum PPAR-α activity of test compound at 3, 10, 30 and 100 μM, B = activity of the compound of WO/2011/058154 at 100 μM, 18 to 20 hours. As to the method:
The PPAR-α activity was measured according to the published article (THE JOURNAL OF BIOLOGICAL CHEMISTRY Vol. 270, No 0.22: 12953-12956, 1995).
Plasmids used for the PPAR-α activity measurement were constructed as follows. A luciferase expression plasmid (UAS×5-TK-Luc) used was obtained by introducing a sequence in which five yeast GAL4-binding sequences are linked in tandem into a portion upstream of a thymidine kinase promoter of pTAL-Luc (Takara Bio Inc., 6252-1). A PPAR-α receptor expression plasmid (hGR-GAL4-hPPARα) used was obtained by introducing a human GR N-terminal region (1-76aa), a yeast GAL4 DNA-binding region (1-147aa), and a PPARα ligand-binding region (167-468aa) between Not I and Sal I sites of pExchange-1 Core Vector (Invitrogen, 211176).
A reporter assay was conducted by the following method using African green monkey kidney-derived CV-1 cells. The CV-1 cells were seeded in a 96-well plate (Thermo Fisher Scientific K.K., 4938) at 2×10^4 cells/well by using a 10% FBS-containing DMEM (NACALAI TESQUE, INC., 0845874) medium. After culturing under conditions of 37° C. and 5% CO2 for 2 hours, the cells were transfected with the plasmids. The transfection was conducted by using Lipofectamine LTX (Invitrogen, 15338-100) according to the attached manual. The plasmid solution was prepared by adding a mixture solution of the luciferase expression plasmid and the PPAR-α receptor expression plasmid to OPTI-MEM I (Invitrogen, 11058-021). After the transfection, the test compound was added, and the cells were cultured at 37° C. in the presence of 5% CO2 for 18 to 20 hours. After the culturing, the luciferase activity was measured with Luminescensor JNR (ATTO) by using Bright-Glo (Promega, E2620).
The fold induction of PPAR-α by each test compound was calculated by the following method. A relative fold induction (%) of PPAR-α by the test compound was defined as 100 (A/B), where A represents the maximum value of the PPAR-α activities of the test compound at 3 μM, 10 μM, 30 μM, and 100 μM, and B represents the PPAR-α activity of the compound of WO/2011/058154 at 100 μM.
As for `NC(=O)C1CC[C@@H](C(=O)O)N1C(=O)c1cccc(COc2ccc(-c3cc(F)c(F)c4ccoc34)cc2)c1` (single isomer, unassigned) [Example 4, (2S,5R) or (2S,5S)-5-Carbamoyl-1-[3-[[4-(4,5-difluorobenzofuran-7-yl)phenoxy]methyl]benzoyl]pyrrolidine-2-carboxylic Acid], the “Relative fold induction (%) of PPAR α” value is listed as 10%.

Staying with this assay, now noted: 100(A/B): A = maximum PPAR-α activity of test compound at 3, 10, 30 and 100 μM, B = activity of the compound of WO/2011/058154 at 100 μM, 18 to 20 hours, read-out: Relative fold induction (%) of PPAR α.
For the molecule `CSc1cc(F)c(F)cc1-c1ccc(OCc2cccc(C(=O)N(CC(=O)O)Cc3cnco3)c2)cc1` [Example 47, 2-[[3-[[4-(4,5-Difluoro-2-methylsulfanyl-phenyl)phenoxy]methyl]benzoyl]-(oxazol-5-ylmethyl)amino]acetic Acid], the Emax was 7.3%.
Still for that read-out and setting: to `CSc1cc(F)c(F)cc1-c1ccc(OCc2cccc(C(=O)N(CCCS(C)(=O)=O)CC(=O)O)c2)cc1` [Example 32, 2-[[3-[[4-(4,5-Difluoro-2-methylsulfanyl-phenyl)phenoxy]methyl]benzoyl]-(3-methylsulfonylpropyl)amino]acetic Acid] belongs 7.1%; to `CSc1cc(F)c(F)cc1-c1ccc(OCc2cccc(C(=O)N(CCC#N)CC(=O)O)c2)cc1` [Example 7, 2-[2-Cyanoethyl-[3-[[4-(4,5-difluoro-2-methylsulfanyl-phenyl)phenoxy]methyl]benzoyl]amino]acetic Acid], 16%.
In the case of `CS(=O)(=O)CCCN(CC(=O)O)C(=O)c1cccc(COc2ccc(-c3cc(F)c(F)c4ccoc34)cc2)c1` [Example 77, 2-[[3-[[4-(4,5-Difluorobenzofuran-7-yl)phenoxy]methyl]benzoyl]-(3-methylsulfonylpropyl)amino]acetic Acid], the Emax turned out to be 40%.
The same measure, in the same setting: to `CSc1cc(F)c(F)cc1-c1ccc(OCc2cccc(C(=O)N(CC(=O)O)Cc3coc(C)n3)c2)cc1` [Example 67, 2-[[3-[[4-(4,5-Difluoro-2-methylsulfanyl-phenyl)phenoxy]methyl]benzoyl]-[(2-methyloxazol-4-yl)methyl]amino]acetic Acid] belongs 19%.
The same measure, in the same setting: to `CSc1cc(F)c(F)cc1-c1ccc(OCc2cccc(C(=O)N(CC(=O)O)Cc3cscn3)c2)cc1` [Example 71, 2-[[3-[[4-(4,5-Difluoro-2-methylsulfanyl-phenyl)phenoxy]methyl]benzoyl]-(thiazol-4-ylmethyl)amino]acetic Acid] belongs 20%; to `O=C(O)CN(C(=O)c1cccc(COc2ccc(-c3cc(F)c(F)c4ccoc34)cc2)c1)C1CCNC1=O` (centres unmarked) [Example 82, 2-[[3-[[4-(4,5-Difluorobenzofuran-7-yl)phenoxy]methyl]benzoyl]-(2-oxopyrrolidin-3-yl)amino]acetic Acid], 11%.
On the same count and under the same terms, to `CSc1cc(F)c(F)cc1-c1ccc(OCc2cccc(C(=O)N(CCN3CCS(=O)(=O)CC3)CC(=O)O)c2)cc1` [Example 41, 2-[[3-[[4-(4,5-Difluoro-2-methylsulfanyl-phenyl)phenoxy]methyl]benzoyl]-[2-(1,1-dioxo-1,4-thiazinan-4-yl)ethyl]amino]acetic Acid Trifluoroacetate] belongs 12%.
On to `CSc1cc(F)c(F)cc1-c1ccc(OCc2cccc(C(=O)N(CC(=O)O)CC3CCNCC3)c2)cc1` [Example 35, 2-[[3-[[4-(4,5-Difluoro-2-methylsulfanyl-phenyl)phenoxy]methyl]benzoyl]-(4-piperidylmethyl)amino]acetic Acid Trifluoroacetate], for which the Emax came to 8.5%.
On the same count and under the same terms, to `CSc1cc(F)c(F)cc1-c1ccc(OCc2cccc(C(=O)N(CC(=O)O)CC3CCOCC3)c2)cc1` [Example 34, 2-[[3-[[4-(4,5-Difluoro-2-methylsulfanyl-phenyl)phenoxy]methyl]benzoyl]-(tetrahydropyran-4-ylmethyl)amino]acetic Acid] belongs 7.3%; to `CS(=O)(=O)CCN(CC(=O)O)C(=O)c1cccc(COc2ccc(-c3cc(F)c(F)c4ccoc34)cc2)c1` [Example 8, 2-[[3-[[4-(4,5-Difluorobenzofuran-7-yl)phenoxy]methyl]benzoyl]-(2-methylsulfonylethyl)amino]acetic Acid], 11%; to `CSc1cc(F)c(F)cc1-c1ccc(OCc2cccc(C(=O)N(CCCN(C)C)CC(=O)O)c2)cc1` [Example 26, 2-[[3-[[4-(4,5-Difluoro-2-methylsulfanyl-phenyl)phenoxy]methyl]benzoyl]-[3-(dimethylamino)propyl]amino]acetic Acid Trifluoroacetate], 11%.
On the same count and under the same terms, in the case of `CSc1cc(F)c(F)cc1-c1ccc(OCc2cccc(C(=O)N(CC(=O)O)Cc3ccncc3)c2)cc1` [Example 19, 2-[[3-[[4-(4,5-Difluoro-2-methylsulfanyl-phenyl)phenoxy]methyl]benzoyl]-(4-pyridylmethyl)amino]acetic Acid Trifluoroacetate] it was 21%; in that of `COCCN(CC(=O)O)C(=O)c1cccc(COc2ccc(-c3cc(F)c(F)cc3SC)cc2)c1` [Example 6, 2-[[3-[[4-(4,5-Difluoro-2-methylsulfanyl-phenyl)phenoxy]methyl]benzoyl]-(2-methoxyethyl)amino]acetic Acid], 86%; in that of `CC(C)(O)CCN(CC(=O)O)C(=O)c1cccc(COc2ccc(-c3cc(F)c(F)c4ccoc34)cc2)c1` [Example 18, 2-[[3-[[4-(4,5-Difluorobenzofuran-7-yl)phenoxy]methyl]benzoyl]-(3-hydroxy-3-methyl-butyl)amino]acetic Acid], 23%.
For the molecule `CC(=O)N1CCC(CN(CC(=O)O)C(=O)c2cccc(COc3ccc(-c4cc(F)c(F)c5ccoc45)cc3)c2)CC1` [Example 81, 2-[(1-Acetyl-4-piperidyl)methyl-[3-[[4-(4,5-difluorobenzofuran-7-yl)phenoxy]methyl]benzoyl]amino]acetic Acid], the Emax came to 6.4%.
Still for that read-out and setting: to `COC1CCN(C(=O)c2cccc(COc3ccc(-c4cc(F)c(F)cc4SC)cc3)c2)C1C(=O)O` (stereo in doubt) [Example 33, (2S,3S)-1-[3-[[4-(4,5-Difluoro-2-methylsulfanyl-phenyl)phenoxy]methyl]benzoyl]-3-methoxy-pyrrolidine-2-carboxylic Acid] belongs 13%; to `NC(=O)CN(CC(=O)O)C(=O)c1cccc(COc2ccc(-c3cc(F)c(F)c4ccoc34)cc2)c1` [Example 1, 2-[(2-Amino-2-oxo-ethyl)-[3-[[4-(4,5-difluorobenzofuran-7-yl)phenoxy]methyl]benzoyl]amino]acetic Acid], 12%; to `CSc1cc(F)c(F)cc1-c1ccc(OCc2cccc(C(=O)N3CC[C@H](O)[C@H]3C(=O)O)c2)cc1` [Example 5, (2S,3S)-1-[3-[[4-(4,5-Difluoro-2-methylsulfanyl-phenyl)phenoxy]methyl]benzoyl]-3-hydroxy-pyrrolidine-2-carboxylic Acid], 10%.
On to `CSc1cc(F)c(F)cc1-c1ccc(OCc2cccc(C(=O)N3C(CC#N)CC[C@H]3C(=O)O)c2)cc1` (stereo partly drawn) [Example 72, (2S)-5-(Cyanomethyl)-1-[3-[[4-(4,5-difluoro-2-methylsulfanyl-phenyl)phenoxy]methyl]benzoyl]pyrrolidine-2-carboxylic Acid], for which the Emax was 12%.
Regarding `CSc1cc(F)c(F)cc1-c1ccc(OCc2cccc(C(=O)N3C(C(N)=O)CC[C@H]3C(=O)O)c2)cc1` (single isomer, unassigned) [Example 57, (2S,5R) or (2S,5S)-5-Carbamoyl-1-[3-[[4-(4,5-difluoro-2-methylsulfanyl-phenyl)phenoxy]methyl]benzoyl]pyrrolidine-2-carboxylic Acid], the Emax was 6.7%.
As to `COC[C@H](C)N(CC(=O)O)C(=O)c1cccc(COc2ccc(-c3cc(F)c(F)c4ccoc34)cc2)c1` [Example 80, 2-[[3-[[4-(4,5-Difluorobenzofuran-7-yl)phenoxy]methyl]benzoyl]-[(1S)-2-methoxy-1-methyl-ethyl]amino]acetic Acid], the Emax was 91%.
